Counter-ions that a name gives are not always drawn.

In the first experiment the test system is HMOX1. The experiment is described as follows: HMOX1 Protein Assay (immunostaining of HO-1 in NHLF cells, GE InCell 1000). In kind it is cell-based. The settings on record: Homo sapiens, fold change above DMSO treated cells, 3 μM compound (asterisk), 16 h. Summed up:
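NHLF cells seeded overnight in FGM-2, then exposed to compound or DMSO vehicle for 16 h, fixed, and immunostained for HO-1 with Hoechst nuclear counterstain; imaged on InCell 1000. Values are fold change over DMSO-treated cells, generally at 5 μM (0.8% DMSO), with asterisked entries at 3 μM.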
On to `COC(C)(C)CNC(=O)c1ccc2c(c1)nc(Nc1nc3ccc(Cl)cc3s1)n2C` [Example 207, 2-(6-Chloro-benzothiazol-2-ylamino)-1-methyl-1H-benzoimidazole-5-carboxylic acid (2-methoxy-2-methyl-propyl)-amide], for which the fold induction (usually the ratio of treated to control signal) at 3 µM is 11.8.

For the compound `Cn1c(Nc2nc3ccc(Cl)cc3s2)nc2cc(C(=O)NCCN3CCCCC3)ccc21` [Example 334, 2-(6-Chloro-benzothiazol-2-ylamino)-1-methyl-1H-benzoimidazole-5-carboxylic acid (2-piperidin-1-yl-ethyl)-amide], the fold induction at 3 µM turned out to be 13.4.

The compound `C[C@H](O)CNC(=O)c1ccc2c(c1)nc(Nc1nc3ccc(C(F)(F)F)cc3s1)n2C` [Example 206, 1-Methyl-2-(6-trifluoromethyl-benzothiazol-2-ylamino)-1H-benzoimidazole-5-carboxylic acid ((S)-2-hydroxy-propyl)-amide] registered a fold induction at 3 µM of 27.

`Cn1c(Nc2nc3ccc(C(F)(F)F)cc3s2)nc2cc(C(=O)NCC(=O)N3CCC(O)CC3)ccc21` [Example 437, 1-Methyl-2-(6-trifluoromethyl-benzothiazol-2-ylamino)-1H-benzoimidazole-5-carboxylic acid [2-(4-hydroxy-piperidin-1-yl)-2-oxo-ethyl]-amide] registered a fold induction at 3 µM of 47.1.

Compound `C[C@@H](NC(=O)c1ccc2c(c1)nc(Nc1nc3ccc(Cl)cc3s1)n2C)C(=O)N1CCOCC1` [Example 471, 2-(6-Chloro-benzothiazol-2-ylamino)-1-methyl-1H-benzoimidazole-5-carboxylic acid ((R)-1-methyl-2-morpholin-4-yl-2-oxo-ethyl)-amide] returned a fold induction at 3 µM of 17.4.

With `Cn1c(Nc2nc3ccc(OC(F)(F)F)cc3s2)nc2cc(C(=O)NCCCCN)ccc21` [Example 346, 1-Methyl-2-(6-trifluoromethoxy-benzothiazol-2-ylamino)-1H-benzoimidazole-5-carboxylic acid (4-amino-butyl)-amide hydrochloride], the fold induction at 3 µM worked out at 12.9.

Staying with this experiment, now noted: Homo sapiens, fold change above DMSO treated cells, 5 μM compound, 16 h.
`COCCn1c(Nc2nc3ccc(OC(F)(F)F)cc3s2)nc2cc(C(=O)NCCOCCO)ccc21` [Example 241, 1-(2-Methoxy-ethyl)-2-(6-trifluoromethoxy-benzothiazol-2-ylamino)-1H-benzoimidazole-5-carboxylic acid [2-(2-hydroxy-ethoxy)-ethyl]-amide] showed a fold induction at 5 µM of 23.7.

Turning to `Cn1c(Nc2nc3c(Cl)cccc3s2)nc2cc(C(=O)NCCOCCN)ccc21` [Example 270, 2-(4-Chloro-benzothiazol-2-ylamino)-1-methyl-1H benzoimidazole-5-carboxylic acid [2-(2-amino-ethoxy)-ethyl]-amide], the fold induction at 5 µM was 14.6.

As for `COC(=O)c1ccc2c(c1)nc(Nc1nc3ccc(OC(F)(F)F)cc3s1)n2C` [Example 2, 1-Methyl-2-(6-trifluoromethoxy-benzothiazol-2-ylamino)-1H-benzoimidazole-5-carboxylic acid methyl ester], the fold induction at 5 µM stood at 6.51.

`Cn1c(Nc2nc3ccc(OC(F)(F)F)cc3s2)nc2cc(C(=O)NCCN3CCC(O)CC3)ccc21` [Example 192, 1-Methyl-2-(6-trifluoromethoxy-benzothiazol-2-ylamino)-1H-benzoimidazole-5-carboxylic acid [2-(4-hydroxy-piperidin-1-yl)-ethyl]-amide] returned a fold induction at 5 µM of 28.8.

`Cn1c(Nc2nc3ccc(OC(F)(F)F)cc3s2)nc2cc(C(=O)NCC3COCCO3)ccc21` (stereo not drawn) [Example 49, 1-Methyl-2-(6-trifluoromethoxy-benzothiazol-2-ylamino)-1H-benzoimidazole-5-carboxylic acid ([1,4]dioxan-2-ylmethyl)-amide]: the fold induction at 5 µM was 23.1.

The compound `Cn1c(Nc2nc3ccc(OC(F)(F)F)cc3s2)nc2cc(C(=O)NC3CCNCC3)ccc21` [Example 93, 1-Methyl-2-(6-trifluoromethoxy-benzothiazol-2-ylamino)-1H-benzoimidazole-5-carboxylic acid piperidin-4-ylamide hydrochloride] came in with a fold induction at 5 µM of 11.3.

The compound `CCNC(=O)c1ccc2c(c1)nc(Nc1nc3ccc(Cl)cc3s1)n2C` [Example 32, 2-(6-Chloro-benzothiazol-2-ylamino)-1-methyl-1H-benzoimidazole-5-carboxylic acid ethylamide] came in with a fold induction at 5 µM of 12.6.

Consider `CCn1c(Nc2nc3ccc(Cl)cc3s2)nc2cc(C(=O)NCCF)ccc21` [Example 176, 2-(6-Chloro-benzothiazol-2-ylamino)-1-ethyl-1H-benzoimidazole-5-carboxylic acid (2-fluoro-ethyl)-amide], for which the fold induction at 5 µM worked out at 25.8.

The compound `Cn1c(Nc2nc3ccc(Cl)cc3s2)nc2cc(C(=O)N3CCN(CCO)CC3)ccc21` [Example 306, [2-(6-Chloro-benzothiazol-2-ylamino)-1-methyl-1H-benzoimidazol-5-yl]-[4-(2-hydroxy-ethyl)-piperazin-1-yl]-methanone] registered a fold induction at 5 µM of 38.7.

With `COC(=O)c1ccc2c(c1)nc(Nc1nc3ccc(SC(F)(F)F)cc3s1)n2C` [Example 132, 1-Methyl-2-(6-trifluoromethylsulfanyl-benzothiazol-2-ylamino)-1H-benzoimidazole-5-carboxylic acid methyl ester], the fold induction at 5 µM is 5.8.

As for `CCOCCNC(=O)c1cnc2c(c1)nc(Nc1nc3ccc(OC(F)(F)F)cc3s1)n2C` [Example 75, 3-Methyl-2-(6-trifluoromethoxy-benzothiazol-2-ylamino)-3H-imidazo[-4,5-b]pyridine-6-carboxylic acid (2-ethoxy-ethyl)-amide], the fold induction at 5 µM came to 29.

In turn, `CN(C(=O)CNC(=O)c1ccc2c(c1)nc(Nc1nc3ccc(Cl)cc3s1)n2C)C1CCCNC1` (stereo not drawn) [Example 396, 2-(6-Chloro-benzothiazol-2-ylamino)-1-methyl-1H-benzoimidazole-5-carboxylic acid [(methyl-piperidin-3-yl-carbamoyl)-methyl]-amide hydrochloride] gave a fold induction at 5 µM of 36.

On to `COCCOCCNC(=O)c1ccc2c(c1)nc(Nc1nc3ccc(Cl)cc3s1)n2C` [Example 261, 2-(6-Chloro-benzothiazol-2-ylamino)-1-methyl-1H-benzoimidazole-5-carboxylic acid [2-(2-methoxy-ethoxy)-ethyl]-amide], for which the fold induction at 5 µM came to 35.7.

`Cn1c(Nc2nc3ccc(OC(F)(F)F)cc3s2)nc2cc(C(=O)NCCOCC(F)F)ccc21` [Example 258, 1-Methyl-2-(6-trifluoromethoxy-benzothiazol-2-ylamino)-1H-benzoimidazole-5-carboxylic acid [2-(2,2-difluoro-ethoxy)-ethyl]-amide] came in with a fold induction at 5 µM of 24.6.

With `Cn1c(Nc2nc3ccc(OC(F)(F)F)cc3s2)nc2cc(C(=O)NC[C@H]3CC[C@H](O)CC3)ccc21` [Example 232, 1-Methyl-2-(6-trifluoromethoxy-benzothiazol-2-ylamino)-1H-benzoimidazole-5-carboxylic acid (trans-4-hydroxy-cyclohexylmethyl)-amide], the fold induction at 5 µM was 33.

`CCNC(=O)c1ccc2c(c1)nc(Nc1nc3ccc(OC(F)(F)F)cc3s1)n2C` [Example 6, 1-Methyl-2-(6-trifluoromethoxy-benzothiazol-2-ylamino)-1H-benzoimidazole-5-carboxylic acid ethylamide] gave a fold induction at 5 µM of 9.45.

Turning to `CN1CCC(NC(=O)CNC(=O)c2ccc3c(c2)nc(Nc2nc4ccc(Cl)cc4s2)n3C)CC1` [Example 386, 2-(6-Chloro-benzothiazol-2-ylamino)-1-methyl-1H-benzoimidazole-5-carboxylic acid [(1-methyl-piperidin-4-ylcarbamoyl)-methyl]-amide], the fold induction at 5 µM was found to be 58.3.

Regarding `Cn1c(Nc2nc3ccc(Cl)cc3s2)nc2cc(C(=O)NCCOCCC#N)ccc21` [Example 266, 2-(6-Chloro-benzothiazol-2-ylamino)-1-methyl-1H-benzoimidazole-5-carboxylic acid [2-(2-cyano-ethoxy)-ethyl]-amide], the fold induction at 5 µM was 57.

`COC(=O)[C@H](C)NC(=O)c1ccc2c(c1)nc(Nc1nc3ccc(OC(F)(F)F)cc3s1)n2C` [Example 143, (S)-2-{[1-Methyl-2-(6-trifluoromethoxy-benzothiazol-2-ylamino)-1H-benzoimidazole-5-carbonyl]-amino}-propionic acid methyl ester] showed a fold induction at 5 µM of 22.4.

Consider `CCn1c(Nc2nc3ccc(Cl)cc3s2)nc2cc(C(=O)NC)ccc21` [Example 174, 2-(6-Chloro-benzothiazol-2-ylamino)-1-ethyl-1H-benzoimidazole-5-carboxylic acid methylamide], for which the fold induction at 5 µM came out at 26.2.

Compound `CC(O)CNC(=O)c1cnc2c(c1)nc(Nc1nc3ccc(OC(F)(F)F)cc3s1)n2C` (stereo not drawn) [Example 78, 3-Methyl-2-(6-trifluoromethoxy-benzothiazol-2-ylamino)-3H-imidazo[4,5-b]pyridine-6-carboxylic acid (2-hydroxy-propyl)-amide] yielded a fold induction at 5 µM of 28.6.

Take `Cn1c(Nc2nc3ccc(OC(F)(F)F)cc3s2)nc2cc(C(=O)NCc3ccc(O)cc3)ccc21` [Example 230, 1-Methyl-2-(6-trifluoromethoxy-benzothiazol-2-ylamino)-1H-benzoimidazole-5-carboxylic acid 4-hydroxy-benzylamide]: the fold induction at 5 µM was 29.8.

Compound `CSCCNC(=O)c1ccc2c(c1)nc(Nc1nc3ccc(OC(F)(F)F)cc3s1)n2C` [Example 101, 1-Methyl-2-(6-trifluoromethoxy-benzothiazol-2-ylamino)-1H-benzoimidazole-5-carboxylic acid (2-methylsulfanyl-ethyl)-amide] displayed a fold induction at 5 µM of 11.2.

`COCCNC(=O)c1ccc2c(c1)nc(Nc1nc3ccc(S(C)(=O)=O)cc3s1)n2C` [Example 127, 2-(6-Methanesulfonyl-benzothiazol-2-ylamino)-1-methyl-1H-benzimidazole-5-carboxylic acid (2-methoxy-ethyl)-amide] gave a fold induction at 5 µM of 12.4.
